In the supplement of paper PMC10307832:

Experiments:
Assay in all cases: relative viability (nuclei count vs DMSO), 5 days (fraction); higher = more cells survive
Bicalutamide + Foretinib = compound: CC(O)(CS(=O)(=O)c1ccc(F)cc1)C(=O)Nc1ccc(C#N)c(C(F)(F)F)c1 [Bicalutamide] + COc1cc2c(Oc3ccc(NC(=O)C4(C(=O)Nc5ccc(F)cc5)CC4)cc3F)ccnc2cc1OCCCN1CCOCC1 [Foretinib] (partner 0.25 µM)
Procedure, shortened: (§1)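 Lung cancer cell lines in 1536-well plates got either a single drug or a fixed anchor-drug dose together with five library-drug doses (not always all listed) in √10 steps, by pin tool, on the day after seeding. Nuclei were counted after 5 days, and relative viability is the treated-to-vehicle ratio of nuclei counts. Values are medians of duplicate plates.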

[1] = compound: CC(O)(CS(=O)(=O)c1ccc(F)cc1)C(=O)Nc1ccc(C#N)c(C(F)(F)F)c1 [Bicalutamide] + CC(C)C[C@H](NC(=O)[C@H](Cc1ccccc1)NC(=O)c1cnccn1)B(O)O [Bortezomib] (partner 0.002 µM)
Procedure, shortened: as §1

[2] = compound: C(C(=O)C(=O)O)Br [Bromopyruvate] + Cc1cc(Nc2cc(N3CCN(C)CC3)nc(Sc3ccc(NC(=O)C4CC4)cc3)n2)n[nH]1 [Tozasertib] (partner 0.1 µM)
Procedure, shortened: as §1

[3] = compound: CC(O)(CS(=O)(=O)c1ccc(F)cc1)C(=O)Nc1ccc(C#N)c(C(F)(F)F)c1 [Bicalutamide] + C[C@]1(O)C[C@@H](c2nc(-c3ccc4ccc(-c5ccccc5)nc4c3)c3c(N)nccn32)C1 [Linsitinib] (partner 1 µM)
Procedure, shortened: as §1

Cell Line | relative viability (Bicalutamide + Foretinib; first compound 0.08 µM) | relative viability (Bicalutamide + Foretinib; first compound 0.253 µM) | relative viability (Bicalutamide + Foretinib; first compound 0.8 µM) | relative viability (Bicalutamide + Foretinib; first compound 2.53 µM) | relative viability ([1]; first compound 0.08 µM) | relative viability ([1]; first compound 0.253 µM) | relative viability ([1]; first compound 0.8 µM) | relative viability ([1]; first compound 2.53 µM) | relative viability ([2]; first compound 1 µM) | relative viability ([2]; first compound 3.162 µM) | relative viability ([2]; first compound 10 µM) | relative viability ([2]; first compound 31.62 µM) | relative viability ([2]; first compound 100 µM) | relative viability ([3]; first compound 0.08 µM) | relative viability ([3]; first compound 0.253 µM) | relative viability ([3]; first compound 0.8 µM) | relative viability ([3]; first compound 2.53 µM)
HCC-827 | 1.09 | 0.881 | 1.04 | 1.01 | 1.12 | 0.964 | 1.04 | 0.98 | 0.375 | 0.391 | 0.386 | 0.421 | 0.435 | 0.945 | 0.896 | 0.993 | 0.964
HOP-62 | 1.11 | 1.13 | 1.29 | 1.26 | 0.683 | 0.527 | 0.725 | 0.92 | 0.39 | 0.386 | 0.381 | 0.339 | 0.351 | 0.89 | 0.903 | 0.963 | 1.02
IA-LM | 1.22 | 1.1 | 1.17 | 1.18 | 0.819 | 0.86 | 0.966 | 0.837 | – | – | – | – | – | 0.823 | 0.641 | 0.616 | 0.646
LC-2-ad | 0.969 | 0.829 | 1.02 | 1.03 | 1.07 | 1.05 | 0.997 | 1.01 | 0.45 | 0.475 | 0.486 | 0.438 | 0.428 | 0.818 | 0.796 | 0.847 | 0.891
LCLC-97TM1 | 0.871 | 0.923 | 1.04 | 0.96 | 0.726 | 0.543 | 0.635 | 0.461 | 0.195 | 0.206 | 0.212 | 0.182 | 0.128 | 0.185 | 0.188 | 0.199 | 0.185
LCLC-103H | 0.748 | 0.702 | 0.907 | 0.698 | 1.1 | 1.08 | 1.15 | 1 | 0.515 | 0.446 | 0.466 | 0.466 | 0.544 | 1.04 | 1.04 | 1.14 | 1.05
LK-2 | 1.44 | 0.992 | 1.63 | 1.32 | – | – | – | – | 0.171 | 0.169 | 0.174 | 0.179 | 0.177 | 0.715 | 0.349 | 0.64 | 0.657
LOU-NH91 | 0.969 | 0.79 | 0.963 | 0.96 | 0.53 | 0.493 | 0.441 | 0.523 | 0.729 | 0.643 | 0.654 | 0.685 | 0.672 | 0.921 | 0.778 | 0.96 | 1.01
LU99A | 0.773 | 0.815 | 0.892 | 0.578 | 0.995 | 0.964 | 1.24 | 0.846 | 0.344 | 0.253 | 0.285 | 0.233 | 0.325 | 0.512 | 0.486 | 0.566 | 0.47
LXF-289 | 0.955 | 0.91 | 0.939 | 0.985 | 0.98 | 0.908 | 1.02 | 0.963 | 0.184 | 0.179 | 0.213 | 0.152 | 0.172 | 0.962 | 0.92 | 1 | 0.972
NCI-H358 | 0.767 | 0.565 | 0.958 | 0.73 | – | – | – | – | 0.0956 | 0.115 | 0.104 | 0.0945 | 0.0906 | 0.763 | 0.65 | 0.841 | 0.786
NCI-H522 | – | – | – | – | – | – | – | – | 0.616 | 0.549 | 0.547 | 0.485 | 0.391 | – | – | – | –
NCI-H1299 | 1.04 | 1.08 | 1.09 | 1.08 | 0.974 | 1.05 | 0.969 | 1.04 | – | – | – | – | – | 1.04 | 1.03 | 1.17 | 1.01
NCI-H1395 | 0.938 | 0.94 | 1.23 | 0.874 | – | – | – | – | 0.757 | 0.788 | 0.834 | 0.718 | 0.751 | 1.22 | 1.03 | 1.09 | 1
NCI-H1563 | 0.888 | 0.872 | 0.89 | 0.897 | 0.973 | 0.775 | 0.885 | 0.767 | – | – | – | – | – | 1.28 | 1.2 | 1.12 | 1.07
NCI-H1648 | – | – | – | – | – | – | – | – | 0.514 | 0.573 | 0.412 | 0.522 | 0.613 | – | – | – | –
NCI-H1650 | 1.28 | 1.17 | 1.14 | 1.27 | 0.172 | 0.204 | 0.192 | 0.175 | 0.441 | 0.489 | 0.362 | 0.504 | 0.241 | – | – | – | –
NCI-H1703 | 0.342 | 0.36 | 0.41 | 0.293 | 0.374 | 0.427 | 0.317 | 0.204 | – | – | – | – | – | 0.815 | 0.79 | 0.833 | 0.495
NCI-H1792 | – | – | – | – | 0.983 | 0.957 | 0.983 | 1.07 | – | – | – | – | – | 0.585 | 0.412 | 0.549 | 0.48
NCI-H1793 | 0.796 | 0.553 | 0.983 | 0.792 | – | – | – | – | 0.371 | 0.421 | 0.36 | 0.391 | 0.204 | 0.731 | 0.568 | 0.894 | 0.686
NCI-H1944 | 0.837 | 0.749 | 0.981 | 0.775 | – | – | – | – | 0.224 | 0.266 | 0.243 | 0.283 | 0.273 | 1.07 | 1.15 | 1.27 | 1.14
NCI-H2170 | 0.993 | 1 | 1.1 | 0.98 | – | – | – | – | 0.689 | 0.708 | 0.798 | 0.761 | 0.868 | – | – | – | –
NCI-H2342 | 1.08 | 1.13 | 1.09 | 1.08 | – | – | – | – | 0.594 | 0.616 | 0.433 | 0.483 | 0.412 | – | – | – | –
SK-MES-1 | 0.832 | 0.829 | 0.979 | 1.03 | – | – | – | – | 0.877 | 0.926 | 0.948 | 0.98 | 0.9 | 1.14 | 1.07 | 1.07 | 1.04
SW 900 | 1.15 | 0.866 | 1.04 | 1.07 | – | – | – | – | 0.54 | 0.455 | 0.44 | 0.564 | 0.514 | – | – | – | –
